{
  "source": "patent US20090202497A1",
  "about": "“USE OF GLP-1, GLP-1 DERIVATIVES OR GLP-1 FRAGMENTS FOR SKIN REGENERATION, STIMULATION OF HAIR GROWTH, OR TREATMENT OF DIABETES” (The General Hospital Corporation, priority 2005, published 2009)",
  "key": {"[1]": {"tested_on": "shaved New Zealand white rabbits", "experiment": "Hair growth after intradermal peptide injection into the backs of shaved rabbits", "format": "in vivo, rabbit", "conditions": "for hair growth at the sites of injection: 100 μg intradermally in Freund's adjuvant, observed approximately 3-4 weeks after last injection", "description": "0.1 mg (100 μg) of the following peptides were injected intradermally into the backs of the shaved New Zealand white rabbits: synthetic mammalian GLP-1 (1-37), synthetic GLP-1 peptide fragment containing amino acid sequence 16-30 of GLP-1 (1-37) (amino acid numbering starts from histidine 1 of mammalian GLP-1 (1-37), synthetic rat GLP-2 peptide fragment containing amino acid sequence 9-24 of rat GLP-2 (amino acid numbering starts at histidine 1 of the rat GLP-2 sequence), rat IP-2 and synthetic mammalian glucagon. Sequences for rat GLP-2, rat IP-2 and mammalian glucagon are well known in the art, and are provided, for example, in U.S. Pat. No. 6,849,708, which is hereby wholly incorporated by reference (see, e.g., FIG. 1 of U.S. Pat. No. 6,849,708). The total amount of peptide was administered in 10-20 intradermal injections as an emulsification in Freund's adjuvant. Each peptide was tested in four rabbits, except for GLP-1 (1-37) that was injected into 5 rabbits. This amount of peptide was administered at 3 time intervals (100 μg at each time interval), one week apart. […] This effect was not observed in any of the rabbits that were immunized with any other of the above described peptides. […] The inventors observed enhanced hair growth upon intradermal injection of only GLP-1 (1-37) into rabbits."}, "mouse skin-derived cells": {"tested_on": "mouse skin-derived cells", "experiment": "Differentiation of cultured skin-derived cells into insulin C-peptide producing cells (immunostaining)", "format": "cell-based", "conditions": "differentiation media with GLP-1 (10 nM) for 30 days", "description": "For in-vitro differentiation, after passaging for one month, mouse skin-derived cells were freshly plated and overlaid with differentiation medium composed of RPMI1640 containing 1% HEPES, 1% penicillin/streptomycin/fungizone, 1% pyruvate, 2% B-27 supplement, 2% FBS, […] MIN6 cells, provided by J. Miyazaki, were cultured as described (Miyazaki, J. et al., Endocrinology 127:126-32 (1990)).\nFor immunochemistry, 7 μm frozen sections were prepared from newborn C57BL/6 mouse skin, and skin-derived tissue culture cells were grown on coverslips. Tissues/coverslips were fixed with 4% paraformaldehyde at RT for 15 min. They were then rinsed with PBS containing 0.2% Triton X-100 and blocked with 3% normal donkey serum for 1 hour at RT. Tissues/coverslips were incubated with primary antibody at a 1:500 dilution at RT for 1 hour, rinsed with PBS containing 0.2% Triton X-100, and incubated with secondary (donkey) Cy2- or Cy3-conjugated antisera at RT for 1 hour. They were then washed with PBS and mounted with fluorescent mounting medium. […]\nMouse skin was minced and strained, and the resulting cells were used to establish primary cultures of mouse skin-derived cells. […] Immunoreactivity was detected with a Cy-3-conjugated secondary antibody."}, "[2]": {"tested_on": "cultured skin-derived cells", "experiment": "fura-2 loading and perforated patch clamp monitoring of membrane potential and current", "format": "cell-based, mouse", "conditions": "perforated patch clamp; data not shown", "text": "The cells were next loaded with the Ca2+ indicator fura-2, and changes in membrane potential and current were monitored using the perforated patch clamp technique."}, "[3]": {"tested_on": "cultured skin-derived cells", "experiment": "cAMP luciferase reporter plasmid transfected into cultured skin-derived cells", "format": "cell-based, mouse", "conditions": "data not shown"}, "P42/44 MAPK (ERK1/2)": {"tested_on": "P42/44 MAPK (ERK1/2)", "experiment": "Western immunoblot of ERK1/2 phosphorylation in primary skin cell cultures", "format": "cell-based, mouse", "conditions": "10 nM GLP-1", "description": "Cultures of C57B6/L mouse skin-derived cells were grown in 100 mm dishes to 80% confluence. Cultures were washed once with PBS and incubated with KRB buffer (115 mM NaCl, 5 mM KCl, 10 mM NaHCO3, 2.5 mM MgCl2, 2.5 mM CaCl2, 20 mM HEPES, pH 7.4) containing 0.5% bovine serum albumin (BSA) and 1 mM glucose at 37° C. for 1 hour. Cultures were then incubated with 10 nM GLP1 in the setting of no (0 mM), low (2.8 mM) or high (16.7 mM) glucose. Proteins were extracted with lysis buffer (50 mM Hepes pH 7.6, 160 mM NaCl, 20 mM sodium pyrophosphate, 20 mM glycerophosphate, 10 mM NaF, 2 mM sodium vanadate, […], and protease inhibitor cocktail). Ten (10) μg of protein per lane was electrophoresed in 4-12% Bis-Tris gels (Invitrogen Corp.) and transferred onto nitrocellulose membranes (Nitrobind, Osmotics, Inc., Minnetonka, Minn.) at 4° C. overnight. Membranes were blocked with 3% BSA in PBS with 0.2% Tween-80 for 1 hour at RT, incubated with mouse monoclonal anti-phospho-P42 MAPK antibody (1:2000 dilution) at 4° C. overnight, washed, and incubated with horseradish peroxidase-conjugated secondary antibody at RT for 1 hour. Immunostained proteins were detected using a the ECL chemiluminescence detection kit (Amersham Biosciences, Ltd., Buckinghamshire, England). […]"}, "[4]": {"tested_on": "cultured skin-derived cells", "experiment": "cAMP levels in cell extracts after incubation with GLP-1", "format": "cell-based, mouse", "conditions": "incubation with GLP-1 for 5-30 min; data not shown", "description": "To determine whether GLP-1 receptors are actively coupled to signal transduction pathways in skin-derived cells, GLP-1 was added to the cells and examined for the activation of cell signaling. Three signaling pathways were investigated: Cyclic AMP, calcium influx, and mitogen activated protein kinase phosphorylation (MAPK).\nSince GLP-1Rs are classically recognized to couple to Gs and adenylyl cyclase to generate cAMP cell extracts were assayed for changes in levels of cAMP after their incubation with GLP-1 for 5-30 min."}},
  "data": [
    {"substance": "GLP-1 peptide fragment containing amino acid sequence 16-30 of GLP-1 (1-37): synthetic GLP-1 peptide fragment containing amino acid sequence 16-30 of GLP-1 (1-37) (VSSYLEGQAAKEFIA; Glucagon-like peptide 1; UniProt P01275 107-121, looked up, fragment)", "values": [
      {"measurement": "hair growth at the sites of injection", "setting": "[1]; 3 times one week apart", "value": "not observed"}
    ]},
    {"substance": "glucagon [mammalian glucagon, reference compound]", "values": [
      {"measurement": "hair growth at the sites of injection", "setting": "[1]; 3 times one week apart", "value": "not observed"}
    ]},
    {"substance": "glucagon-like peptide-1 [GLP-1 (1-37)]", "values": [
      {"measurement": "cytoplasmic staining of insulin C-peptide", "setting": "mouse skin-derived cells", "value": "Many of the cells showed cytoplasmic staining of C-peptide"},
      {"measurement": "hair growth at the sites of injection", "setting": "[1]; 3 times one week apart", "value": "luxurious hair growth was observed only at the sites of injection"},
      {"measurement": "rabbits showing hair growth at the sites of injection", "setting": "[1]; 100 μg intradermally, 3 times one week apart, approximately 3-4 weeks after last injection", "value": "4 out of 5"},
      {"measurement": "hair growth in repeat experiments", "setting": "[1]; repeat experiments at different seasons of the year", "value": "variable results"},
      {"measurement": "membrane current in response to peptide", "setting": "[2]", "value": "No membrane current was detected"},
      {"measurement": "activation of cAMP luciferase reporter", "setting": "[3]", "value": "failed to activate"},
      {"measurement": "phosphorylation of ERK1/2 (time course)", "setting": "P42/44 MAPK (ERK1/2); 0, 5, 15 or 30 minutes, 0, 2.8 or 16.7 mM glucose", "value": "prompt phosphorylation of ERK1/2 after 5 minutes followed by defervescence of phosphorylation at 15 and rephosphorylation at 30 min"},
      {"measurement": "glucose dependence of ERK1/2 phosphorylation", "setting": "P42/44 MAPK (ERK1/2); no, 2.8 mM or 16.7 mM glucose", "value": "glucose-dependent"},
      {"measurement": "changes in levels of cAMP", "setting": "[4]", "value": "No changes in cAMP levels were observed"}
    ]},
    {"substance": "rat GLP-2 peptide fragment containing amino acid sequence 9-24 of rat GLP-2: synthetic rat GLP-2 peptide fragment, residues 9-24, numbering from histidine 1 of rat GLP-2 (EMNTILDNLATRDFIN; Glucagon-like peptide 2; UniProt P06883 154-169, looked up, fragment) [reference compound]", "values": [
      {"measurement": "hair growth at the sites of injection", "setting": "[1]; 3 times one week apart", "value": "not observed"}
    ]}
  ]
}
